These compounds were tested against T1, Human Polθ polymerase domain (aa1820-2590) (Homo sapiens, UniProt O75417) (assay: Polθ Polymerase Domain Kinact/KI Assay (PicoGreen)). Details: 0.8 nM Polθ, 100 nM DNA substrate, kobs vs [I] fit for 2-step covalent inhibitor.
T1 construct: Human Polθ polymerase domain (aa1820-2590) was expressed in E. coli; made in house; host or cells: E. coli
T1 sequence (O75417 1820-2590): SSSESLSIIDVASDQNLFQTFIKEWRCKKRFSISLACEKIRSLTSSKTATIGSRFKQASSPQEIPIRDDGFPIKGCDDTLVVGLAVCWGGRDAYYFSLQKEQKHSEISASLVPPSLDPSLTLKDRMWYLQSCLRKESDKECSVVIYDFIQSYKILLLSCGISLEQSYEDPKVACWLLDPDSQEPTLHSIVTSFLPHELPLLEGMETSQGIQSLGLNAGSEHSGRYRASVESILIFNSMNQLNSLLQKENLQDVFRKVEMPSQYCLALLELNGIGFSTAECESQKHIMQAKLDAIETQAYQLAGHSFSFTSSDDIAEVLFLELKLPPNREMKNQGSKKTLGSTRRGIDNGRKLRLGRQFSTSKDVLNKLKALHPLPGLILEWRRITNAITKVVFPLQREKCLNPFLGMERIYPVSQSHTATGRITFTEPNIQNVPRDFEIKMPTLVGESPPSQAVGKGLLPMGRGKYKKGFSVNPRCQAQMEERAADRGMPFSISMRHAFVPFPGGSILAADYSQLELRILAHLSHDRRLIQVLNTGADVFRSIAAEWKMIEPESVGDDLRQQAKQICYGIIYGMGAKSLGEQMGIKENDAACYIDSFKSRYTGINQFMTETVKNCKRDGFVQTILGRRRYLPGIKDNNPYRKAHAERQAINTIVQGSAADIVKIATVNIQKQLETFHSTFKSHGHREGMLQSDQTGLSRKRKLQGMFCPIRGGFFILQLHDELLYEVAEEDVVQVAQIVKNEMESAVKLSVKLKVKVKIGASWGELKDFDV
Format: biochemical
Outline: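 PicoGreen fluorescence read-out of primer extension; progress curves per inhibitor concentration fitted for kobs, then kobs vs [I] fitted to a two-step covalent model to give Kinact and KI. Conditions: 0.8 nM enzyme, 100 nM DNA substrate, […].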

SMILES	Kinact/Kl
C=CC(=O)N1CC(Oc2cccc(N3C[C@H]4CC(=O)N(c5cc(C(F)(F)F)cc(C)n5)[C@@H]4C(=O)N(C)c4cccc(F)c43)n2)C1 [Example 57, (3aR,11aS)-5-(6-((1-acryloylazetidin-3-yl)oxy)pyridin-2-yl)-6-fluoro-10-methyl-1-(6-methyl-4-(trifluoromethyl)pyridin-2-yl)-1,3a,4,5,10,11a-hexahydro-2H-benzo[b]pyrrolo[2,3-f][1,4]diazocine-2,11(3H)-dione]	34000 M⁻¹ s⁻¹
C=CC(=O)N1C[C@@H]2CN(CCN3C[C@H]4CC(=O)N(c5cc(C(F)(F)F)cc(C)n5)[C@@H]4C(=O)N(C)c4cccc(F)c43)CCN2[C@H](C)C1 [Example 63a, (3aR,11aS)-5-(2-((6R/S,9aS/R)-8-acryloyl-6-methyloctahydro-2H-pyrazino[1,2-a]pyrazin-2-yl)ethyl)-6-fluoro-10-methyl-1-(6-methyl-4-(trifluoromethyl)pyridin-2-yl)-1,3a,4,5,10,11a-hexahydro-2H-benzo[b]pyrrolo[2,3-f][1,4]diazocine-2,11(3H)-dione]	3.1e+06 M⁻¹ s⁻¹
C=CC(=O)N1C[C@H]2CN(CCN3C[C@H]4CC(=O)N(c5cc(C(F)(F)F)cc(C)n5)[C@@H]4C(=O)N(C)c4cccc(F)c43)CCN2[C@@H](C)C1 [Example 63b, (3aR,11aS)-5-(2-((6S/R,9aR/S)-8-acryloyl-6-methyloctahydro-2H-pyrazino[1,2-a]pyrazin-2-yl)ethyl)-6-fluoro-10-methyl-1-(6-methyl-4-(trifluoromethyl)pyridin-2-yl)-1,3a,4,5,10,11a-hexahydro-2H-benzo[b]pyrrolo[2,3-f][1,4]diazocine-2,11(3H)-dione]	190000 M⁻¹ s⁻¹
C=CC(=O)N1C[C@@H]2CN(CCN3C[C@H]4CC(=O)N(c5cc(C(F)(F)F)cc(C)n5)[C@@H]4C(=O)N(C)c4cccc(F)c43)CCN2[C@@H](C)C1 [Example 64b, (3aR,11aS)-5-(2-((6S/R,9aS/R)-8-acryloyl-6-methyloctahydro-2H-pyrazino[1,2-a]pyrazin-2-yl)ethyl)-6-fluoro-10-methyl-1-(6-methyl-4-(trifluoromethyl)pyridin-2-yl)-1,3a,4,5,10,11a-hexahydro-2H-benzo[b]pyrrolo[2,3-f][1,4]diazocine-2,11(3H)-dione]	270000 M⁻¹ s⁻¹
C=C(CN(C)C)C(=O)N1CC(C(=O)N(C)CCN2C[C@H]3CC(=O)N(c4cc(C(F)(F)F)cc(C)n4)[C@@H]3C(=O)N(C)c3cccc(Cl)c32)C1 [Example 65, N-(2-((3aR,11aS)-6-chloro-10-methyl-1-(6-methyl-4-(trifluoromethyl)pyridin-2-yl)-2,11-dioxo-1,2,3,3a,4,10,11,11a-octahydro-5H-benzo[b]pyrrolo[2,3-f][1,4]diazocin-5-yl)ethyl)-1-(2-((dimethylamino)methyl)acryloyl)-N-methylazetidine-3-carboxamide]	4.96e+06 M⁻¹ s⁻¹
C=CC(=O)N1CC[C@H](NCCN2C[C@H]3CC(=O)N(c4cc(C(F)(F)F)cc(C)n4)[C@@H]3C(=O)N(C)c3cccc(Cl)c32)[C@H](F)C1 [Example 66, (3aR,11aS)-5-(2-(((3R,4S)-1-acryloyl-3-fluoropiperidin-4-yl)amino)ethyl)-6-chloro-10-methyl-1-(6-methyl-4-(trifluoromethyl)pyridin-2-yl)-1,3a,4,5,10,11a-hexahydro-2H-benzo[b]pyrrolo[2,3-f][1,4]diazocine-2,11(3H)-dione]	2.11e+06 M⁻¹ s⁻¹
C=CC(=O)N1CC[C@H](N(C)CCN2C[C@H]3CC(=O)N(c4cc(C(F)(F)F)cc(C)n4)[C@@H]3C(=O)N(C)c3cccc(Cl)c32)[C@H](F)C1 [Example 67, (3aR,11aS)-5-(2-(((3R,4S)-1-acryloyl-3-fluoropiperidin-4-yl)(methyl)amino)ethyl)-6-chloro-10-methyl-1-(6-methyl-4-(trifluoromethyl)pyridin-2-yl)-1,3a,4,5,10,11a-hexahydro-2H-benzo[b]pyrrolo[2,3-f][1,4]diazocine-2,11(3H)-dione]	2.32e+06 M⁻¹ s⁻¹
C=CC(=O)N1CC(NCCCN2C[C@H]3CC(=O)N(c4cc(C(F)(F)F)cc(C)n4)[C@@H]3C(=O)N(C)c3cccc(F)c32)C1 [Example 70, (3aR,11aS)-5-(3-((1-acryloylazetidin-3-yl)amino)propyl)-6-fluoro-10-methyl-1-(6-methyl-4-(trifluoromethyl)pyridin-2-yl)-1,3a,4,5,10,11a-hexahydro-2H-benzo[b]pyrrolo[2,3-f][1,4]diazocine-2,11(3H)-dione]	970000 M⁻¹ s⁻¹
C=CC(=O)N1CC(N(C)CCCN2C[C@H]3CC(=O)N(c4cc(C(F)(F)F)cc(C)n4)[C@@H]3C(=O)N(C)c3cccc(F)c32)C1 [Example 71, (3aR,11aS)-5-(3-((1-acryloylazetidin-3-yl)(methyl)amino)propyl)-6-fluoro-10-methyl-1-(6-methyl-4-(trifluoromethyl)pyridin-2-yl)-1,3a,4,5,10,11a-hexahydro-2H-benzo[b]pyrrolo[2,3-f][1,4]diazocine-2,11(3H)-dione]	420000 M⁻¹ s⁻¹
C=CC(=O)N1CC(C)(N2CCN(CCN3C[C@H]4CC(=O)N(c5cc(C(F)(F)F)cc(C)n5)[C@@H]4C(=O)N(C)c4cccc(C)c43)CC2)C1 [Example 72, (3aR,11aS)-5-(2-(4-(1-acryloyl-3-methylazetidin-3-yl)piperazin-1-yl)ethyl)-6,10-dimethyl-1-(6-methyl-4-(trifluoromethyl)pyridin-2-yl)-1,3a,4,5,10,11a-hexahydro-2H-benzo[b]pyrrolo[2,3-f][1,4]diazocine-2,11(3H)-dione]	2.36e+06 M⁻¹ s⁻¹
C=CC(=O)N1CCn2c(nc(CN3C[C@H]4CC(=O)N(c5cc(C(F)(F)F)cc(C)n5)[C@@H]4C(=O)N(C)c4cccc(C)c43)c2C)C1 [Example 74, (3aR,11aS)-5-((7-acryloyl-3-methyl-5,6,7,8-tetrahydroimidazo[1,2-a]pyrazin-2-yl)methyl)-6,10-dimethyl-1-(6-methyl-4-(trifluoromethyl)pyridin-2-yl)-1,3a,4,5,10,11a-hexahydro-2H-benzo[b]pyrrolo[2,3-f][1,4]diazocine-2,11(3H)-dione]	5.83e+06 M⁻¹ s⁻¹
C=CC(=O)N1CC(N2CCN(C(=O)CN3C[C@H]4CC(=O)N(c5cc(C(F)(F)F)cc(C)n5)[C@@H]4C(=O)N(C)c4cccc(Cl)c43)CC2)C1 [Example 75, (3aR,11aS)-5-(2-(4-(1-acryloylazetidin-3-yl)piperazin-1-yl)-2-oxoethyl)-6-chloro-10-methyl-1-(6-methyl-4-(trifluoromethyl)pyridin-2-yl)-1,3a,4,5,10,11a-hexahydro-2H-benzo[b]pyrrolo[2,3-f][1,4]diazocine-2,11(3H)-dione]	1.32e+06 M⁻¹ s⁻¹
C=C(CN(C)C)C(=O)N1CC(OCCCN2C[C@H]3CC(=O)N(c4cc(C(F)(F)F)cc(C)n4)[C@@H]3C(=O)N(C)c3cccc(C)c32)C1 [Example 77, (3aR,11aS)-5-(3-((1-(2-((dimethylamino)methyl)acryloyl)azetidin-3-yl)oxy)propyl)-6,10-dimethyl-1-(6-methyl-4-(trifluoromethyl)pyridin-2-yl)-1,3a,4,5,10,11a-hexahydro-2H-benzo[b]pyrrolo[2,3-f][1,4]diazocine-2,11(3H)-dione]	2.55e+06 M⁻¹ s⁻¹
C=C(COC(C)=O)C(=O)N1CC(OCCCN2C[C@H]3CC(=O)N(c4cc(C(F)(F)F)cc(C)n4)[C@@H]3C(=O)N(C)c3cccc(Cl)c32)C1 [Example 78, 2-(3-(3-((3aR,11aS)-6-chloro-10-methyl-1-(6-methyl-4-(trifluoromethyl)pyridin-2-yl)-2,11-dioxo-1,2,3,3a,4,10,11,11a-octahydro-5H-benzo[b]pyrrolo[2,3-f][1,4]diazocin-5-yl)propoxy)azetidine-1-carbonyl)allyl Acetate]	2.06e+06 M⁻¹ s⁻¹
Cc1cc(C(F)(F)F)cc(N2C(=O)C[C@@H]3CN(CCCOC4CN(C(=O)/C(Cl)=C/CN(C)C)C4)c4c(F)cccc4N(C)C(=O)[C@H]32)n1 [Example 79, (3aR,11aS)-5-(3-((1-((Z)-2-chloro-4-(dimethylamino)but-2-enoyl)azetidin-3-yl)oxy)propyl)-6-fluoro-10-methyl-1-(6-methyl-4-(trifluoromethyl)pyridin-2-yl)-1,3a,4,5,10,11a-hexahydro-2H-benzo[b]pyrrolo[2,3-f][1,4]diazocine-2,11(3H)-dione]	1.46e+06 M⁻¹ s⁻¹
C/C=C(\CN(C)C)C(=O)N1CC(OCCCN2C[C@H]3CC(=O)N(c4cc(C(F)(F)F)cc(C)n4)[C@@H]3C(=O)N(C)c3cccc(F)c32)C1 [Example 80, (3aR,11aS)-5-(3-((1-((E)-2-((dimethylamino)methyl)but-2-enoyl)azetidin-3-yl)oxy)propyl)-6-fluoro-10-methyl-1-(6-methyl-4-(trifluoromethyl)pyridin-2-yl)-1,3a,4,5,10,11a-hexahydro-2H-benzo[b]pyrrolo[2,3-f][1,4]diazocine-2,11(3H)-dione]	810000 M⁻¹ s⁻¹

Reference: patent US20250230165A1, “HETEROCYCLIC COMPOUNDS FOR USE IN THE TREATMENT OF CANCER” (ARTIOS PHARMA LIMITED, priority 2021, published 2025)
